Source: the NIST ThermoML archive (doi:10.1021/je050509f)

Experiment: mn = molality of the nth substance listed, in mol/kg
Details: Liquid, Vibrating tube method

[Cl-].[Cl-].[Zn+2] [zinc chloride] + CO
mass density [kg/m3]
Details	323.24 K	348.27 K
305 kPa, m1 = 1.977	–	904.26
308 kPa, m1 = 0.1348	–	752.15
320 kPa, m1 = 0.4768	–	782.8
328 kPa, m1 = 0.8018	–	810.17
330 kPa, m1 = 1.039	–	829.39
335 kPa, m1 = 5.367	–	1141.63
4982 kPa, m1 = 5.367	–	1146.29
4983 kPa, m1 = 0.4768	–	788.73
4984 kPa, m1 = 1.977	–	909.72
4989 kPa, m1 = 0.1348	–	758.25
4994 kPa, m1 = 1.039	–	835.08
4999 kPa, m1 = 0.8018	–	816.01
9985 kPa, m1 = 1.977	–	915.25
9992 kPa, m1 = 0.8018	–	821.86
9992 kPa, m1 = 5.367	–	1151.14
9993 kPa, m1 = 0.1348	–	764.3
9994 kPa, m1 = 0.4768	818.67	–
9997 kPa, m1 = 5.367	1181.61	–
9998 kPa, m1 = 0.4768	–	794.7
10000 kPa, m1 = 1.039	–	840.82
10002 kPa, m1 = 0.8018	846.25	–
10003 kPa, m1 = 0.1348	787.77	–
10005 kPa, m1 = 1.039	865.32	–
14982 kPa, m1 = 0.4768	823.55	–
14985 kPa, m1 = 0.4768	–	800.24
14985 kPa, m1 = 0.8018	–	827.35
14987 kPa, m1 = 1.039	–	846.22
14992 kPa, m1 = 1.977	–	920.51
14998 kPa, m1 = 1.977	946.2	–
14999 kPa, m1 = 0.1348	792.71	769.95
14999 kPa, m1 = 1.039	870.09	–
15002 kPa, m1 = 0.8018	851.11	–
15002 kPa, m1 = 5.367	1185.89	–
15020 kPa, m1 = 5.367	–	1155.81
19986 kPa, m1 = 1.977	–	925.5
19989 kPa, m1 = 0.4768	–	805.48
19994 kPa, m1 = 0.8018	–	832.56
19995 kPa, m1 = 0.4768	828.21	–
19998 kPa, m1 = 5.367	1190.03	–
19999 kPa, m1 = 0.8018	855.74	–
19999 kPa, m1 = 1.977	950.72	–
20000 kPa, m1 = 0.1348	797.39	–
20003 kPa, m1 = 1.039	874.64	–
24989 kPa, m1 = 0.8018	860.16	–
24989 kPa, m1 = 1.977	955.05	–
24989 kPa, m1 = 5.367	1194.06	–
24990 kPa, m1 = 1.039	878.98	–
24994 kPa, m1 = 0.1348	801.85	–
24999 kPa, m1 = 0.4768	832.65	–
29987 kPa, m1 = 0.4768	836.86	–
29989 kPa, m1 = 0.8018	864.4	–
29990 kPa, m1 = 1.977	959.23	–
29993 kPa, m1 = 0.1348	806.09	–
30001 kPa, m1 = 5.367	1197.99	–
30007 kPa, m1 = 1.039	883.18	–
34987 kPa, m1 = 5.367	1201.8	–
34989 kPa, m1 = 1.039	887.17	–
34998 kPa, m1 = 0.8018	868.48	–
35001 kPa, m1 = 1.977	963.27	–
35003 kPa, m1 = 0.4768	840.94	–
35007 kPa, m1 = 0.1348	810.14	–
39991 kPa, m1 = 1.039	891.04	–
39994 kPa, m1 = 0.4768	844.83	–
39995 kPa, m1 = 0.8018	872.4	–
39995 kPa, m1 = 5.367	1205.55	–
39997 kPa, m1 = 0.1348	814	–
39997 kPa, m1 = 1.977	967.17	–
